Article PMC6868087, “Exploiting Curcumin Synergy With Natural Products Using Quantitative Analysis of Dose–Effect Relationships in an Experimental In Vitro Model of Osteoarthritis” (Frontiers in Pharmacology, 2019)
Where two headings read alike, the source gives them in different places.

Assays:
[1] = matrix not stated; no reference given; cited from earlier work
[2] = tested on: IL-1β mRNA expression; experiment: IL-1β mRNA expression (RTqPCR) in LPS-stimulated human articular chondrocytes; Chou-Talalay median-effect and combination index analysis; format: cell-based; conditions: Chondrocyte, 4 h, LPS 2 µg/ml
Description: Human articular chondrocytes (ScienCell, CA, USA) were cultured in the specific Chondrocyte Medium (Cat. 4651; ScienCell, CA, USA) supplemented with 1% antibiotic mixture, in 5% CO2 humidified incubator at 37°C. The medium was renewed every 2 days and confluent chondrocytes were trypsinized, subdivided, and re-plated. In these experiments chondrocytes from passage 3 to 7 were used. Chondrocytes were cultured in six well culture plates at a density of 2.5 × 10^5 cells/well. Sixteen hours after seeding, a set of plates were treated with LPS (2 µg/ml; Escherichia coli serotype 055:B5; […] Total RNA was isolated from human chondrocytes for RTqPCR analysis using Trizol Reagent Kit (Life Technologies, Monza, Italy). […] RTqPCR was performed on both targets and endogenous control using SYBR Premix DimerEraser (Takara, Japan) and QuantStudio 6 Flex Real-Time PCR System (Applied Biosystems, CA, USA). The amplified PCR products were quantified by measuring the calculated cycle thresholds (CT) of targets and β-actin mRNA. The amounts of specific mRNA in samples were calculated using the 2^-ΔΔCT method. The mean value of investigated mRNA levels in LPS or IL-1β-stimulated chondrocytes was chosen as the calibrator, and the results are expressed as % of reduction compared to LPS or IL-1β controls. The IC50 value was calculated by fitting the progress curves to the four-parameter IC50 equation using GraphPad prism software version 5.03 (Graphpad software, CA, USA). Chou and Talalay multiple drug effect analysis was performed and it is based on the median-effect principle ([Chou and Talalay, 1984]; [Chou, 2006]). The Median Effect Equation states that fa/fu = (D/Dm) m, where D is the dose, fa and fu are the affected and the unaffected fractions, respectively, of IL-1β mRNA expression levels, by the dose D; Dm is the dose required to produce the median effect (i.e., IC50), and m is the Hill-type coefficient signifying the sigmoidicity of the dose–effect curve. […] The CI was calculated as: CI=[(D)1/(D50)1]+[(D) 2/(D50)2 […] The CI index was calculated using Grafit software.

[3] = tested on: STAT3 mRNA expression; experiment: STAT3 mRNA expression by RTqPCR in LPS-stimulated chondrocytes; format: cell-based, human; conditions: IC50 doses
Description: (§1) Human articular chondrocytes (ScienCell, CA, USA) were cultured in the specific Chondrocyte Medium (Cat. 4651; ScienCell, CA, USA) supplemented with 1% antibiotic mixture, in 5% CO2 humidified incubator at 37°C. The medium was renewed every 2 days and confluent chondrocytes were trypsinized, subdivided, and re-plated. In these experiments chondrocytes from passage 3 to 7 were used. Chondrocytes were cultured in six well culture plates at a density of 2.5 × 10^5 cells/well. Sixteen hours after seeding, a set of plates were treated with LPS (2 μg/ml; Escherichia coli serotype 055:B5; […] Total RNA was isolated from human chondrocytes for RTqPCR analysis using Trizol Reagent Kit (Life Technologies, Monza, Italy). […] The amplified PCR products were quantified by measuring the calculated cycle thresholds (CT) of targets and β-actin mRNA. The amounts of specific mRNA in samples were calculated using the 2^-ΔΔCT method. The mean value of investigated mRNA levels in LPS or IL-1β-stimulated chondrocytes was chosen as the calibrator, and the results are expressed as % of reduction compared to LPS or IL-1β controls. The IC50 value was calculated by fitting the progress curves to the four-parameter IC50 equation using GraphPad prism software version 5.03 (Graphpad software, CA, USA). […]

[4] = tested on: COL2A1 mRNA expression; experiment: COL2A1 (type II collagen) mRNA expression by RTqPCR in chondrocytes stimulated with LPS or IL-1β; format: cell-based, human; conditions: IC50 doses
Description: as §1

[5] = tested on: Human articular chondrocytes; experiment: MTT assay, cell viability of chondrocytes; format: cell-based; conditions: IC50 concentrations, 24 h
Description: Human articular chondrocytes (ScienCell, CA, USA) were cultured in the specific Chondrocyte Medium (Cat. 4651; ScienCell, CA, USA) supplemented with 1% antibiotic mixture, in 5% CO2 humidified incubator at 37°C. The medium was renewed every 2 days and confluent chondrocytes were trypsinized, subdivided, and re-plated. In these experiments chondrocytes from passage 3 to 7 were used. Cell viability was evaluated by MTT assay. Chondrocytes were grown and then treated with IC50 doses when reached confluence. In particular, flavocoxid, curcumin, flavocoxid + curcumin, β-caryophyllene, and β-caryophyllene + curcumin were tested in a 96-well plate at a density of 8 × 10^4 cells/well for 24 h to evaluate the cytotoxic effect. The tetrazolium dye MTT 3-(4,5-dimethylthiazol-2-yl)-2,5-diphenyltetrazolium bromide (Sigma Aldrich, Milan, Italy) was dissolved in sterile filtered PBS, and 20 µl of the mixture were added into each well 5 h before the end of the 24 h of incubation. Medium was removed and the insoluble formazan crystals were dissolved with dimethyl sulfoxide (DMSO; 200 µl/well) following 5 h. The difference between the values obtained at 540 and 620 nm of absorbance was used to calculate the average of replicates and to evaluate cytotoxicity. Results were expressed as % of cell viability compared to untreated cells and reported as means and SD.

[6] = tested on: NF-κB mRNA expression; experiment: NF-κB mRNA expression by RTqPCR in LPS-stimulated chondrocytes; format: cell-based, human; conditions: IC50 doses
Description: as §1

[7] = curcumin/β-caryophyllene experiment, combination molar ratio 3.6:1, read-out: IC50, reduction of IL-1β mRNA

| SMILES | half-life [1] | IC50 ([2]; curcumin/flavocoxid experiment, combination molar ratio 7.3:1, read-out: IC50, reduction of IL-1β mRNA) | IC50 [2, 7] | STAT3 mRNA expression [3] | COL2A1 (type II collagen) mRNA expression [4] | Cell viability (cytotoxic effect), MTT [5] | NF-κB mRNA expression [6] |
| --- | --- | --- | --- | --- | --- | --- | --- |
| COc1cc(/C=C/C(=O)CC(=O)/C=C/c2ccc(O)c(OC)c2)ccc1O [curcumin] | about 3 h | 14.3 µM | 13.6 µM | reduced | partially able to restore the mRNA control levels | did not affect chondrocytes viability | reduced |
| C=C1CC/C=C(\C)CC[C@@H]2[C@@H]1CC2(C)C [β-caryophyllene] |  |  | 48.9 µM | reduced | partially able to restore the mRNA control levels | did not affect chondrocytes viability | reduced |
